This is an account of results in BindingDB's records for doi:10.1021/jm00126a018 (Amherst College, 1989).

The target of the assay is Chymotrypsinogen A (Bos taurus) (UniProt P00766). The assay is described as follows: Inhibition of chymotrypsin-catalyzed hydrolysis of BzTyr p-nitroanilide by compound at pH 5.

Structures are written as SMILES.

Turning to `CC(=O)N[C@@H](C)C(=O)NN=CCNC(=O)c1ccccc1`, the Ki is above 8 mM.

In general, Ki refers to the equilibrium dissociation constant of an inhibitor or competing ligand from its target. Low values mean higher affinity, high ones lower affinity.
